Results published in publication PMC11024016 (Pharmaceutical Research, 2024).

Assays:
[1] = Maximum tolerated dose of TPT in mice; conditions: mouse, in vivo, intravenous, 5 consecutive days, authors' previous study (data not shown)
[2] = tested on: Ser139-phosphorylated human H2AX (γhH2AX) in the tumor; assay: DNA damage in tumor (γH2AX) of ES-2 tumor-bearing mice; format: in vivo; conditions: TPT 2 mg/kg/day for 5 consecutive days
Description: Mice in the TPT group were euthanized at 3 and 24 h after each dosing and 3, 5, and 7 days after the last dosing (n = 3). Samples were also harvested at 0.5 h after the first and last TPT dose (n = 3). Mice in the vehicle control group were administered sucrose/histidine buffer intravenously and were euthanized at 3 h, 3, 7, and 11 days post-dosing (n = 2 or 3). The levels of Ser139-phosphorylated human H2AX (γhH2AX) and total hH2AX in the tumor, as well as Ser139-phosphorylated mouse H2AX (γmH2AX) and total mH2AX in mouse bone marrow, were quantified using a previously established method.

[3] = Pharmacokinetics of total topotecan in plasma, tumor and BM-ISF of ES-2 tumor bearing mice; format: in vivo, BALB/c nude mice; conditions: single i.v. 2 mg/kg
Description: (§1) Sucrose/histidine buffer and saline (Otsuka Pharmaceutical Factory, Tokushima, Japan) were used as the diluent for FF-10850 and TPT, respectively. After blood sample collection, mice were euthanized at the corresponding time points, and tumor and bone marrow tissues were collected. Plasma was obtained by centrifuging the blood samples at 800 × g for 15 min at 4 °C. Tumor tissues, placed on ice, were minced into fine pieces with scissors. Bone marrow tissues were harvested from the femur and tibia. After cutting the ends, the bones were placed in a microtube and centrifuged at 1,200 × g for 1 min at 4 °C. Unencapsulated topotecan was immediately separated from the plasma and tissue samples and processed.
(§2) To prepare the samples, methanol with 0.1% formic acid plus topotecan-d6 was added to plasma samples, while methanol with 0.1% formic acid was used for tumor and BM-ISF samples. The samples were thoroughly mixed and centrifuged at 11,300 × g for 3 min. The supernatants were added to an equal volume of water with 0.1% formic acid, and the mixture was injected into the liquid chromatographic–triple quadrupole mass spectrometric (LC–MS/MS) system. The ultra-performance liquid chromatography (UPLC) conditions for topotecan analysis were as follows: system, ACQUITY UPLC (Waters, Milford, MA); column, ACQUITY UPLC BEH C18 Column (1.7 µm, 2.1 mm × 50 mm, Waters); mobile phase A, 0.1% formic acid; mobile phase B, methanol with 0.1% formic acid, gradient (initial to 2.0 min, linear increase from 20 to 50% of B; 2.0 to 3.0 min, 95% B, and 3.0 to 4.0 min, 20% B); flow rate, 0.4 mL/min; column temperature, 40 °C. A Triple Quad 5500 (AB Sciex, Framingham, MA) mass spectrometer equipped with Analyst software (AB Sciex) and positive ion electrospray ionization in a multiple reaction monitoring (MRM) mode were used. Quantification was performed using MRM with the transitions of m/z at 422.0 → 377.1 for topotecan and 428.1 → 377.1 for topotecan-d6.
(§3) Pharmacokinetic parameters, including half-life (T1/2), initial concentration at t = 0 (C0), the area under the concentration versus time curves from 0 to infinity (AUCinf), clearance (CL), mean residence time (MRT), and the volume of distribution (Vd) of total and unencapsulated topotecan in plasma, tumor tissue, and BM-ISF were analyzed using noncompartmental analysis with Phoenix WinNonlin version 8.2 pharmacokinetic software (Certara, Princeton, NJ). The AUCs were calculated using the linear up/log down rule.

[4] = Pharmacokinetics of unencapsulated topotecan in plasma, tumor and BM-ISF of ES-2 tumor bearing mice; format: in vivo, BALB/c nude mice; conditions: for AUC(0-inf) / Cmax / MRT / half-life: BALB/c nude, mouse, iv
Description: as §1
For the separation of unencapsulated topotecan in plasma, plasma samples diluted with PBS were ultracentrifuged at 200,000 × g for 1 h at 4 °C to precipitate the liposomes. The supernatants were collected as samples for measuring unencapsulated topotecan in plasma. To separate unencapsulated topotecan in tumor tissues, the tissues were minced as described and homogenized in PBS containing topotecan-d6 as an internal standard (125 mg tissue/mL PBS), with zirconia balls using Micro Smash MS-100R (Tomy Seiko, Tokyo, Japan). The homogenate was then ultracentrifuged at 200,000 × g for 1 h at 4 °C, and the supernatants were collected as samples for measuring unencapsulated topotecan in the tumor tissue. For the separation of unencapsulated topotecan in BM-ISF, a bone marrow tissue suspension was prepared by adding PBS containing topoteacan-d6 to the tissue (25 mg tissue/mL PBS) and suspending it by pipetting. After removing cellular components from the suspension by centrifugation at 1,200 × g for 3 min at 4 °C, the supernatant was collected as the BM-ISF sample. These samples were ultracentrifuged at 200,000 × g for 1 h at 4 °C, and the supernatants were collected to measure unencapsulated topotecan in the BM-ISF.
as §2, §3

[5] = BALB/c nude, mouse, BM-ISF (bone marrow interstitial fluid), iv, BM-ISF, ES-2 tumor bearing mice
[6] = BALB/c nude, mouse, iv, plasma, ES-2 tumor bearing mice
[7] = BALB/c nude, mouse, iv, tumor, ES-2 tumor bearing mice
[8] = unencapsulated topotecan, BM-ISF, single i.v. 2 mg/kg, ES-2 tumor bearing mice
[9] = unencapsulated topotecan, plasma, single i.v. 2 mg/kg, ES-2 tumor bearing mice
[10] = unencapsulated topotecan, tumor, single i.v. 2 mg/kg, ES-2 tumor bearing mice

In the case of `CC[C@@]1(O)C(=O)OCc2c1cc1n(c2=O)Cc2cc3c(CN(C)C)c(O)ccc3nc2-1` [TPT, Topotecan], the MTD at 5 days [1] is reported as 2 mg/kg/day, the “human γH2AX levels in the tumor (DNA damage)” value ([2]; FF-10850 single i.v. 2 mg/kg) is reported as “comparable DNA damage” and the “time γH2AX levels remained elevated in tumor after each dose” value [2] is reported as “at least 24 h”. The AUC(0-inf) [3, 5] was 862 ng·h/mL, the Cmax [3, 5] was 1710 ng/mL and the MRT [3, 5] was 39.5 min. It also gave a half-life ([3]; BALB/c nude, mouse, iv, BM-ISF (bone marrow interstitial fluid), ES-2 tumor bearing mice) of 41.4 min, an AUC(0-inf) [3, 6] of 140 ng·h/mL and a C0 [3, 6] of 406 ng/mL. The MRT [3, 6] was 23.3 min, the Vd [3, 6] was 5.87 L/kg and the clearance [3, 6] was 238 mL/min/kg. For the same compound, the half-life [3, 6] was 23.9 min, the Cmax [3, 7] was 546 ng/g and the MRT [3, 7] was 61.2 min. The half-life [3, 7] was 55.7 min, the “AUCinf in BM-ISF relative to that in plasma” value [3] was 6 times and the “AUCinf ratio (Tumor/BM-ISF)” value ([3]; ES-2 tumor bearing mice) was 0.675. It also gave an AUCinf ([3]; tumor, ES-2 tumor bearing mice) of 582 ng∙h/g tissue, an AUC(0-inf) [4, 8] of 822 ng·h/mL and a Cmax [4, 8] of 1700 ng/mL. The MRT [4, 8] was 36.4 min, the half-life [4, 8] was 43.7 min and the AUC(0-inf) [4, 9] was 97.3 ng·h/mL. The Cmax [4, 9] was 198 ng/mL, the MRT [4, 9] was 34.6 min and the half-life [4, 9] was 26.3 min. The Cmax [4, 10] was 646 ng/g, the MRT [4, 10] was 62.4 min and the half-life [4, 10] was 58.3 min. For the same compound, the “difference between total and unencapsulated topotecan AUCs” value ([4]; in plasma and each tissue) was at most 1.5 fold, the “AUCinf ratio (Tumor/BM-ISF)” value ([4]; unencapsulated topotecan, single i.v. 2 mg/kg, ES-2 tumor bearing mice) was 0.833 and the AUCinf [4, 10] was 684 ng∙h/g tissue.
